Measured values: ChEMBL document CHEMBL3286109, “Structure-activity relationship studies of indole-based compounds as small molecule HIV-1 fusion inhibitors targeting glycoprotein 41” (J Med Chem, 2014)
One block for each compound: values may come before it.

Tests used:
[1] = Inhibition of HIV1 HXB2 gp41-mediated cell-cell fusion between viral envelope-expressing human HL2/3 cells to human TZM-bl cells by luciferase reporter assay; assay type: cell-based; settings: Human immunodeficiency virus 1, HXB2, TZM-bl
[2] = system: Human immunodeficiency virus 1; experiment: Antiviral activity against HIV-1 Ba-L infected in human MAGI-CCR5 cells assessed as inhibition of viral replication after 48 hrs by chemiluminescence assay; assay type: functional, organism-based; settings: Human immunodeficiency virus 1, Ba-L, MAGI-CCR5, 48 h
[3] = Cytotoxicity against human MAGI-CCR5 cells assessed as inhibition of cell viability by MTS assay; assay type: cell-based; settings: read-out: TC50 (the source's name)
[4] = Cytotoxicity against human TZM-bl cells assessed as inhibition of cell viability by resazurin assay; settings: read-out: TC50 (the source's name)
[5] = system: Human immunodeficiency virus 1; experiment: Antiviral activity against HIV-1 3B infected in human MAGI-CCR5 cells assessed as inhibition of viral replication after 48 hrs by chemiluminescence assay; assay type: functional, organism-based; settings: Human immunodeficiency virus 1, 3B, MAGI-CCR5, 48 h
[6] = Binding affinity to HIV1 Envelope glycoprotein gp41 Fe(env2.0)3 using C18FL as probe by fluorescence assay; set-up: species or system Human immunodeficiency virus 1

Structure (SMILES): COc1cccc(-c2ccc3ccn(Cc4cccc(C(=O)O)c4)c3c2)c1
EC50 [1]: 14 µM
EC50 [2]: 28 µM
CC50 [3]: > 100 µM
CC50 [4]: > 100 µM

Structure (SMILES): O=C(O)c1cccc(Cn2ccc3ccc(-c4cccc(O)c4)cc32)c1
EC50 [1]: 8 µM
EC50 [2]: 23 µM
CC50 [3]: 94 µM
CC50 [4]: 100 µM

EC50 [2]: 48 µM
Structure (SMILES): O=C(O)c1cccc(Cn2ccc3ccc(-c4ccc5cc(Cl)ccc5n4)cc32)c1
CC50 [3]: > 100 µM
CC50 [4]: 50 µM

EC50 [2]: 0.9 µM
EC50 [5]: 0.9 µM
Structure (SMILES): COc1ccc(Cn2ccc3ccc(-c4ccc5ccn(Cc6cccc(C(=O)O)c6)c5c4)cc32)cc1
CC50 [3]: 32 µM
CC50 [4]: 20 µM

Structure (SMILES): O=C(O)c1cccc(Cn2ccc3ccc(-c4ccc5ccn(Cc6ccc(F)cc6)c5c4)cc32)c1
Ki [6]: 1.7 µM
EC50 [1]: 1.1 µM
EC50 [2]: 1.6 µM
CC50 [4]: > 25 µM

Structure (SMILES): O=C(O)c1cccc(Cn2ccc3cc(-c4ccc5cc(Cl)ccc5n4)ccc32)c1
EC50 [1]: 8 µM
EC50 [2]: 6 µM
CC50 [4]: 100 µM

Structure (SMILES): COc1cccc(Cn2ccc3ccc(-c4ccc5ncn(Cc6cccc(C(=O)O)c6)c5c4)cc32)c1
Ki [6]: 6 µM
EC50 [1]: 34 µM
EC50 [2]: 54 µM
EC50 [5]: 57 µM
CC50 [3]: > 100 µM
CC50 [4]: > 100 µM

Structure (SMILES): COc1cccc(Cn2cnc3ccc(-c4ccc5ccn(Cc6cccc(C(=O)O)c6)c5c4)cc32)c1
Ki [6]: 4.7 µM
EC50 [1]: 45 µM
EC50 [2]: 56 µM
EC50 [5]: 63 µM
CC50 [3]: > 100 µM
CC50 [4]: > 100 µM

Structure (SMILES): COc1cccc(Cn2ccc3ccc(-c4ccc5c(c4)ncn5Cc4cccc(C(=O)O)c4)cc32)c1
Ki [6]: 3.8 µM
EC50 [1]: 6 µM
EC50 [2]: 48 µM
EC50 [5]: > 100 µM
CC50 [3]: > 100 µM
CC50 [4]: > 100 µM

Structure (SMILES): COc1cccc(Cn2cnc3cc(-c4ccc5ccn(Cc6cccc(C(=O)O)c6)c5c4)ccc32)c1
Ki [6]: 5.3 µM
EC50 [1]: 56 µM
EC50 [2]: 28 µM
EC50 [5]: 49 µM
CC50 [3]: > 100 µM
CC50 [4]: > 100 µM

Structure (SMILES): COc1cccc(Cc2c[nH]c3cc(-c4ccc5ccn(Cc6cccc(C(=O)O)c6)c5c4)ccc23)c1
Ki [6]: 0.9 µM
EC50 [1]: 6 µM
EC50 [2]: 5.6 µM
EC50 [5]: 5.8 µM
CC50 [3]: 24 µM
CC50 [4]: 33 µM

Structure (SMILES): COc1cccc(Cn2ccc3ccc(-c4ccc5c(Cc6cccc(C(=O)O)c6)c[nH]c5c4)cc32)c1
Ki [6]: 1.6 µM
EC50 [1]: 7 µM
EC50 [2]: 18 µM
EC50 [5]: 18 µM
CC50 [3]: 34 µM
CC50 [4]: 57 µM

Structure (SMILES): COc1cccc(Cc2c[nH]c3cc(-c4ccc5c(Cc6cccc(C(=O)O)c6)c[nH]c5c4)ccc23)c1
Ki [6]: 0.9 µM
EC50 [1]: 4 µM
EC50 [2]: 5.9 µM
EC50 [5]: 6.2 µM
CC50 [3]: 12 µM
CC50 [4]: 500 µM

Structure (SMILES): COC(=O)c1cccc(Cc2c[nH]c3ccc(-c4ccc5[nH]cc(Cc6cccc(C(=O)O)c6)c5c4)cc23)c1
Ki [6]: 1.2 µM
EC50 [1]: 2 µM
EC50 [2]: 5 µM
EC50 [5]: 4.8 µM
CC50 [3]: 31 µM
CC50 [4]: 99 µM

Structure (SMILES): O=C(O)c1cccc(Cc2c[nH]c3ccc(-c4ccc5cc[nH]c5c4)cc23)c1
Ki [6]: 1.7 µM
EC50 [1]: 5 µM
EC50 [2]: 13 µM
EC50 [5]: 13 µM
CC50 [3]: 80 µM
CC50 [4]: 194 µM

Structure (SMILES): O=C(O)c1cccc(Cc2c[nH]c3cc(-c4ccc5cc[nH]c5c4)ccc23)c1
Ki [6]: 0.6 µM
EC50 [1]: 6 µM
EC50 [2]: 13 µM
EC50 [5]: 14 µM
CC50 [3]: 23 µM
CC50 [4]: 290 µM

Structure (SMILES): O=C(O)c1cccc(Cn2cnc3ccc(-c4ccc5cc[nH]c5c4)cc32)c1
Ki [6]: 11 µM
EC50 [1]: 14 µM
EC50 [2]: 41 µM
EC50 [5]: 36 µM
CC50 [3]: > 100 µM
CC50 [4]: > 100 µM

Structure (SMILES): O=C(O)c1cccc(Cn2cnc3cc(-c4ccc5cc[nH]c5c4)ccc32)c1
Ki [6]: 16 µM
EC50 [1]: 124 µM
EC50 [2]: > 100 µM
EC50 [5]: > 100 µM
CC50 [3]: > 100 µM
CC50 [4]: > 100 µM

Structure (SMILES): Cn1ccc2ccc(-c3ccc4ccn(Cc5cccc(C(=O)O)c5)c4c3)cc21
Ki [6]: 0.3 µM
EC50 [1]: 1.3 µM
EC50 [2]: 4.5 µM
EC50 [5]: 4.3 µM
CC50 [3]: > 50 µM
CC50 [4]: > 50 µM
